Laboratory results reported in ChEMBL document CHEMBL3301361, “Experimental in vitro DMPK and physicochemical data on a set of publicly disclosed compounds”.

experiment: physchem; settings: octan-1-ol/water, pH 7.4

| Compound | logD |
| --- | --- |
| CCN(CC)C(=O)c1ccc(C2=CC3(CCNCC3)Oc3ccccc32)c(O)c1 [ADL-5747 FREE BASE] | 0.77 |
| CCCNC(=O)c1nnc2c(-c3cc(C)ccc3OC)cccc2c1N | 3.99 |
| Oc1ncnc2[nH]ncc12 [ALLOPURINOL] | -0.42 |
| O=C(NCC1CCOCC1)c1ncccc1NC(=O)c1cccc2ccccc12 | 4.4 |
| CCN(CC)C(=O)c1ccc(C(=C2CCNCC2)c2ccc(Cl)c(Cl)c2)cc1 | 2.4 |
| C=CCC1(CC(C)C)C(=O)NC(=O)NC1=O [BUTALBITAL] | 1.48 |

same assay, conditions: octan-1-ol/water, pH 7.4, LogD7.4

| Compound | logD |
| --- | --- |
| O=S(=O)(NCC(c1ccccc1)N1CCCCCC1)c1cccc(C(F)(F)F)c1 (stereo not given) | 3.12 |
| Nc1nc(-c2ccc(O)cc2)cc(=O)[nH]1 | 1.05 |
| CC(C)CC(c1ccncc1)n1[nH]c(=O)c2nc3cc(Cl)ccc3c(O)c2c1=O (stereo not given) | 1.64 |
| N#Cc1ccc(-c2cc(NC(N)=O)c(C(=O)N[C@H]3CCCNC3)s2)cc1 | 0.61 |
| CC(C)C(NC(=O)Cn1c(-c2ccccc2)ccc(NS(=O)(=O)c2ccccc2)c1=O)C(=O)C(F)(F)F (stereo not given) | 2.26 |
| C[C@@H](NC(=O)C1(N)CCN(c2ncnc3[nH]ccc23)CC1)c1ccc(Cl)cc1 | 3.3 |
| C[C@H]1CCCN1CCc1cc2cc(-c3ccc(C#N)cc3)ccc2o1 | 3.25 |
| Cc1ccc(-c2cc(C(F)(F)F)n[nH]2)cc1NC(=O)c1ccc(OCc2ccccn2)cc1 | 2.44 |
| C1=CCC(c2cc3ccccc3o2)CNC1 (stereo not given) | 1.94 |
| Cc1cc(CN2Cc3ccccc3C2C(=O)Nc2ccc(Cl)cc2)ccc1OCC(=O)O (stereo not given) | 1.38 |
| Cc1cc(Cl)ccc1OC1CCN(C[C@H](O)CNC(=O)c2c[nH]c(=O)c3c(F)cccc23)CC1 | 3 |
| COc1cc(N2CCN(C)CC2)c2nc(C(=O)Nc3ccc(N4CCOCC4)cc3)cc(N(C)C)c2c1 | 3.3 |
| CC(C)NC[C@@H](C(=O)N1CCN(c2ncnc3c2[C@H](C)C[C@H]3O)CC1)c1ccc(Cl)cc1 [IPATASERTIB] | 1.3 |
| O=c1cc(N2CCOCC2)oc2cc(O)ccc12 | 1 |
| C[C@@H]1CN(c2c(F)c(N)c3c(=O)c(C(=O)O)cn(C4CC4)c3c2F)C[C@H](C)N1 [SPARFLOXACIN] | -0.15 |
| N#Cc1cc(O)cc2nc(-c3ccc(O)cc3)oc12 | 3.6 |
| CCN(CC)S(=O)(=O)c1ccc(NC(=O)C(C)(O)C(F)(F)F)cc1 (stereo not given) | 2.63 |
| CC#Cc1ccnc(-c2cc(C3(C4CC4)N=C(C)C(N)=N3)ccc2O)c1 (stereo not given) | 3.6 |
| Oc1ccc(-c2cnc3ccccc3n2)cc1 | 3.3 |
| C[C@@H]1CN(c2noc(C(F)(F)F)n2)CCN1c1ncc(OCc2ccncc2C#N)cn1 | 3.95 |
| O=C1c2ccc(O)cc2C(=O)N1c1cccc(O)c1 | 2 |
| CC(=O)N(C)c1ccc2ccn(-c3cc(NC4CC4)n4ncc(C#N)c4n3)c2c1 | 2.9 |
| CC(C)(C)C(=O)NCc1ccc(NC(=O)N2CCCC(O)(c3ccc(Cl)c(Cl)c3)C2)cc1 (stereo not given) | 3.93 |

| Compound | logD |
| --- | --- |
| NC(=O)Nc1sc(-c2ccc(OCCN3CCCCC3)cc2)cc1C(N)=O | 1.2 |
| O=C(O)c1ccccc1C(=O)N1CCC(N2CCC(Oc3ccc(Cl)c(Cl)c3)CC2)CC1 | 1.73 |
| O=C(NCCN1CCCC1)c1ccc(Nc2ncc3cc(-c4ccncc4)ccc3n2)cc1 | 2.39 |
| C[C@H]1O[C@@H](n2cnc3c(N)nc(OC4CC5CC5C4)nc32)[C@H](O)[C@@H]1O (stereo not given in full) | 1.66 |
| N=C(N)Nc1ccc(C(=O)Oc2ccc([N+](=O)[O-])cc2)cc1 | 0.5 |
| CC(C)(C)c1ccc(-c2n[nH]c(NC(=O)c3ccccc3Cl)c2Br)cc1 | 4.3 |
| O=C(O)C(c1ccccc1)N1CCO[C@@H](CN2CCC(Oc3ccc(Cl)c(Cl)c3)CC2)C1 (stereo not given in full) | 1.71 |
| Cc1cccc(Nc2ccncc2S(=O)(=O)NC(=O)NC(C)C)c1 [TORSEMIDE] | 0.3 |
| CCCNC(=O)c1nnc2c(-c3ncccn3)c(F)ccc2c1N | 2.07 |
| Cc1ccccc1Cn1ccn2c(=O)cc(N3CCOCC3)nc12 | 2.3 |
| CC1CN(C(=O)c2nnc3c(-c4ncccn4)cccc3c2N)C1 | 1.21 |
| NS(=O)(=O)Cc1noc2ccccc12 [ZONISAMIDE] | 0.55 |
| CCCc1c(OCCCSc2ccc(CC(=O)O)cc2Cl)ccc(C(=O)CC)c1O | 3.57 |
| COc1ccc(N(C(=O)c2ccccc2)C(C)C(=O)NC2CCCC2)c(OC)c1 (stereo not given) | 3.02 |
| O=C([C@@H](O)CO)N1CC=C(c2ccc(N3C[C@H](COc4ccon4)OC3=O)cc2F)CC1 | 1.09 |
| CN1CCN(c2cc(F)cc3c(=O)cc(C(=O)Nc4ccc(N5CCOCC5)cc4)[nH]c23)CC1 | 2.7 |
| O=c1[nH]c2c(O)ccc([C@@H](O)CNCCc3cccc(CNCc4ccccc4F)c3)c2s1 | 0.69 |
| Cc1c(CN(C)C(=O)/C=C/c2cnc3c(c2)CCC(=O)N3)oc2ccccc12 [AFN-1252] | 2.36 |
| CC[C@H](NC(=O)c1c([S+](C)[O-])c(-c2ccccc2)nc2cc(CN(C)C)ccc12)c1ccccc1 (stereo not given in full) | 2.75 |
| Cc1cc(-c2ccc(N3C[C@H](Cn4ccnn4)OC3=O)cc2F)on1 | 1.99 |
| Cc1nc(C(=O)[C@@H](C)Oc2ccc(SCCCCCc3ccccc3)cc2)sc1CCCC(=O)O | 3.58 |
| CC(C)NCC(O)COc1nccs1 (stereo not given) [TAZOLOL] | -0.97 |
| CC[C@H](NC(=O)c1c(CC[S+](C)[O-])c(-c2ccccc2)nc2ccccc12)c1ccccc1 (stereo not given in full) | 3.15 |

| Compound | logD |
| --- | --- |
| CC(c1ccccc1)C(Cc1nc2ccccc2[nH]1)c1nc2ccccc2[nH]1 (stereo not given) | 4.48 |
| Nc1nnc(CCSCCc2nnc(N)s2)s1 | -0.1 |
| O=S(=O)(c1ccccc1)C1(c2cc(N3CCOCC3)nc(-c3cccc4[nH]ccc34)n2)CC1 | 3.4 |
| Cn1nc(C(C)(C)C)cc1NC(=O)Nc1ccc(Cl)cc1 | 3.97 |
| COc1ccc(-c2coc3cc(OC)cc(OC)c3c2=O)cc1 [BIOCHANIN A, DIMETHYL ETHER] | 3.05 |
| COc1ccc(Cl)c(C(=O)NCC23CC4CC(CC(C4)C2)C3)c1 | 4.39 |
| CC(=O)NC[C@H]1CN(c2ccc(-n3cnc(C#N)c3)c(F)c2)C(=O)O1 | 1.51 |
| CC1CC(CN)CC(CO)C1 (stereo not given) | -1.4 |
| Cc1cn(C2CCCN(Cc3cccc(Oc4ccc(Cl)cc4)c3)C2)c(=O)[nH]c1=O (stereo not given) | 3.38 |
| O=c1c2cnn(-c3ccccc3)c2nc(-c2ccco2)n1-c1ccccc1 | 3.29 |
| CNCc1cccc(-c2ccc3c(N4CCOCC4)nc(N4C[C@@H](C)O[C@@H](C)C4)nc3n2)c1 | 1.26 |
| Oc1ccc2[nH]c(CN3CCC(Cc4ccc(F)cc4)CC3)nc2c1 | 3.8 |
| Cn1cc(-c2cccc(C[C@H](NC(=O)c3cc(C(C)(C)C)nn3C)C(=O)NCC#N)c2)cn1 | 2.6 |
| Oc1cc(-c2ccccc2)nc2ncnn12 | -0.21 |
| COc1cc(N2CCN(C(N)=O)CC2)ccc1Nc1ncc(Cl)c(-c2cnc3ccccn23)n1 | 3.3 |
| COc1cc2ncc(C(N)=O)c(Nc3ccc(C)cc3F)c2cc1OC | 3.34 |
| CC(CNS(=O)(=O)C(C)C)c1ccc(-c2ccc(C#N)cc2)cc1 (stereo not given) | 3.5 |
| COCCN(C)Cc1ccc(Nc2ncc3cc(-c4ccncc4)ccc3n2)cc1 | 2.65 |
| CSc1ccc(OCc2ccccc2)c(/C=C/c2ccc(C(=O)O)cn2)c1 | 2.45 |
| O=C(Nc1ccc(F)cc1F)c1cc(Cl)ccc1O | 3.6 |
| O=C(CN1C(=O)C(NC(=O)c2cc3cc(Cl)sc3[nH]2)Cc2ccccc21)NO (stereo not given) | 2.4 |
| CC(C)C(NC(=O)Cn1c(-c2cccnc2)ccc(NC(=O)OCc2ccccc2)c1=O)C(=O)C(F)(F)F (stereo not given) | 3.05 |
| CCC(c1nc2ccsc2c(=O)n1Cc1ccccc1)N(CCCN)C(=O)c1ccc(C)cc1 (stereo not given) | 1.81 |
